This is an account of results in patent US8293680B2, “Fungicidal mixtures of triticonazole and difenoconazole” (BASF SE, priority 2007, dated 2012).

Where two headings read alike, the source gives them in different places.

For one assay, the system named is Botrytis cinerea. As to the kind of experiment: Activity against the grey mold Botrytis cinerea in the microtiterplate test (Botrci). Format: cell-based. To be noted: solo, MTP, 405 nm, 7 days after inoculation.
In the next assay the test system is Pyricularia oryzae. Format: cell-based. The following applies: Pyrior, solo, MTP, 405 nm, 7 days after inoculation.

For `CC1(C)CC/C(=C\c2ccc(Cl)cc2)C1(O)Cn1cncn1` (racemic) [Triticonazol, (±) E-5-(4-chlorobenzylidene)-2,2-dimethyl-1-(1H-1,2,4-triazol-1-ylmethyl)cyclopentanol], the Observed efficacy is 55% in the assay on Botrytis cinerea (1 ppm) and 35% with Pyricularia oryzae (4 ppm).
`CC1COC(Cn2cncn2)(c2ccc(Oc3ccc(Cl)cc3)cc2Cl)O1` (stereo not shown) [Difenoconazol, 1-[2-[4-(4-chlorophenoxy)-2-chlorophenyl]-4-methyl-1,3-dioxolan-2-ylmethyl]-1H-1,2,4-triazole]: the Observed efficacy with Botrytis cinerea (0.25 ppm) stood at 30%; in the assay with Pyricularia oryzae (1 ppm) it was 15%.
